{
  "source": "paper PMC8764033",
  "about": "“Single-molecule analysis of specificity and multivalency in binding of short linear substrate motifs to the APC/C” (Nature Communications, 2022)",
  "biological_target": "T1, Cdh1 WD40 domain (yeast) (Saccharomyces cerevisiae, UniProt P53197)",
  "T1 construct": "the WD40 domains of yeast Cdh1 (aa 241–550; pNH144); 2xStrep-Tag II (N); made in house; host or cells: Sf9 insect cells (baculovirus)",
  "T1 sequence (P53197 241-550)": "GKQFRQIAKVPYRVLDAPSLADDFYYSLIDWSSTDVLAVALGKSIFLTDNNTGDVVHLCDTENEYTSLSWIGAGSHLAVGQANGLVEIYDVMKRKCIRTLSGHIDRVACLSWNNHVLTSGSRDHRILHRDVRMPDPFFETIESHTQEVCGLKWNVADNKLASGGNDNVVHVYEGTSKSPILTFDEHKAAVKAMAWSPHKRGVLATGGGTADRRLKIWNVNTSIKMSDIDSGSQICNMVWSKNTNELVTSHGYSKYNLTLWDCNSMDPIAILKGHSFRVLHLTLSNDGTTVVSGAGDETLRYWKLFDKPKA",
  "assay": "Fluorescence anisotropy, 10 nM Cy5-labeled degron peptide, yeast Cdh1 WD40",
  "format": "binding",
  "conditions": "up to 30.6 µM Cdh1^WD40; for pKd: Fig. 1a, mean of 2 or 3 independent experiments, wash buffer B, 25 °C, dark peptide where named 100 µM unlabeled, read-out: KD (mean ± SE)",
  "description": "To determine the affinities of APC/C degrons for their binding sites, we first used conventional equilibrium binding assays of degron peptide binding to the activator. We used the baculovirus system to produce the WD40 domain of Cdh1 from the budding yeast Saccharomyces cerevisiae and measured fluorescence anisotropy to assess the binding of fluorescently-tagged degron peptides at increasing activator concentrations. The WD40 domain of yeast Cdc20 could not be expressed and was not studied.\nActivators were cloned into the pFastBac HT A vector, with an N-terminal 2xStrep-Tag II. For some experiments, we constructed vectors for expression of the WD40 domains of yeast Cdh1 (aa 241–550; pNH144), human Cdh1 (aa 165–484; pNH164), or human Cdc20 (aa 162–484; pNH188). For SMOR, a C-terminal GFP tag was added. Bacmid plasmids are listed in Supplementary Table 3. Plasmids were transformed into DH10Bac cells, and purified Bacmid was used to transfect Sf9 cells to generate P1 baculovirus, which was used to generate P2 virus. SF9 cells were infected with the P2 virus for 48 h. Flash-frozen pellets were lysed by sonication or high-pressure homogenization in lysis buffer B (50 mM Tris-HCl pH 8, 150 mM KCl, 0.5 mM EDTA, 1 mM DTT, 10% Glycerol, EDTA-free protease inhibitor tablet, 1 µg ml^−1 pepstatin A). After the lysate was applied to the StrepTrap column, the column was washed with wash buffer B (lysis buffer B lacking protease inhibitors) and eluted in the same buffer containing 2.5 mM desthiobiotin.\nFluorescent degron peptides carried a C-terminal Cy5 label (CPC Scientific) and are listed in Supplementary Table 4. For anisotropy experiments, 10 nM fluorescent peptide was mixed with various concentrations of purified Cdh1 WD40 in wash buffer B at room temperature for 1 min, which we determined was sufficient for the binding reaction to reach equilibrium. Fluorescence was measured on a K2 Multifrequency Fluorometer at 25 °C. All Cy5-labeled peptides were excited with polarized light at 635 nm and emission was detected using a 700/75 nm bandpass filter (ET series, Chroma). […] Data were fitted to one-site equilibrium binding using GraphPad Prism version 8.4 to determine KD. Results were the same when peptide binding was measured in the buffer used in SMOR assays (buffer C, below).",
  "note": "pKd: −log10 of the molar value. Where a SMILES comes first, the peptide text is derived from it.",
  "data": [
    {"compound": "CC(C)C[C@H](NC(=O)[C@H](C)NC(=O)[C@H](CCCNC(=N)N)NC(=O)[C@H](CCCNC(=N)N)NC(=O)[C@@H]1CCCN1C(=O)[C@H](CCCCN)NC(=O)[C@H](CO)NC(=O)[C@H](CC(=O)O)NC(=O)[C@@H](N)CCC(N)=O)C(=O)N[C@H](C(=O)N[C@@H](CC(=O)O)C(=O)N[C@H](C(=O)N1CCC[C@H]1C(=O)N[C@H](C(=O)N[C@@H](CC(N)=O)C(=O)N[C@@H](CC(N)=O)C(=O)N[C@@H](CC(N)=O)C(=O)N1CCC[C@H]1C(=O)N[C@@H](CC(C)C)C(=O)N[C@@H](CO)C(=O)N[C@@H](CCC(N)=O)C(=O)N[C@@H](CCCCN)C(=O)O)C(C)C)C(C)C)[C@@H](C)O", "note": "[Clb5 D box] (H-QDSKPRRALTDVPVNNNPLSQK-OH; N-terminus and C-terminus assumed)", "values": [
      {"measurement": "pKd", "result": "< 4.51"},
      {"measurement": "binding to Cdh1 (in words)", "result": "Neither D box displayed significant binding to Cdh1"}
    ]},
    {"compound": "CC[C@H](C)[C@H](NC(=O)[C@H](CC(=O)O)NC(=O)[C@H](CO)NC(=O)[C@H](C)NC(=O)[C@H](C)NC(=O)[C@H](C)NC(=O)[C@H](C)NC(=O)[C@H](CCCCN)NC(=O)[C@@H]1CCCN1C(=O)[C@H](CCCCN)NC(=O)[C@H](CCC(N)=O)NC(=O)[C@@H](N)CCC(=O)O)C(=O)N[C@H](C(=O)N[C@@H](C)C(=O)N[C@@H](CO)C(=O)N[C@@H](Cc1ccccc1)C(=O)N[C@@H](CC(N)=O)C(=O)N[C@@H](CCCCN)C(=O)N[C@@H](CCSC)C(=O)N[C@@H](CC(N)=O)C(=O)N[C@@H](CCCCN)C(=O)O)[C@@H](C)O", "note": "[Hsl1 D box mutant] (H-EQKPKAAAASDITASFNKMNK-OH; N-terminus and C-terminus assumed)", "values": [
      {"measurement": "pKd", "result": "< 4.51"},
      {"measurement": "binding to Cdh1 (in words)", "result": "Binding was abolished"}
    ]},
    {"compound": "CC[C@H](C)[C@H](NC(=O)[C@H](Cc1ccccc1)NC(=O)[C@H](CO)NC(=O)[C@H](CCCCN)NC(=O)[C@H](CO)NC(=O)[C@H](CCCNC(=N)N)NC(=O)[C@H](CC(N)=O)NC(=O)[C@H](CC(N)=O)NC(=O)[C@H](CC(=O)O)NC(=O)[C@H](CCCCN)NC(=O)[C@H](C)NC(=O)[C@H](C)NC(=O)[C@H](CC(C)C)NC(=O)[C@@H]1CCCN1C(=O)[C@H](CC(C)C)NC(=O)[C@H](CCCNC(=N)N)NC(=O)CNC(=O)[C@H](CCC(N)=O)NC(=O)[C@H](CCC(N)=O)NC(=O)[C@H](CCC(N)=O)NC(=O)[C@H](C)N)C(=O)N[C@@H](CCCCN)C(=O)O", "note": "[ySecurin D box] (H-AQQQGRLPLAAKDNNRSKSFIK-OH; N-terminus and C-terminus assumed)", "values": [
      {"measurement": "pKd", "result": "< 4.51"},
      {"measurement": "binding to Cdh1 (in words)", "result": "Neither D box displayed significant binding to Cdh1"}
    ]},
    {"compound": "SKAAQFMLYEETAEERNI-K(Cy5) [Acm1 ABBA, Cy5-labeled Cdh1-specific ABBA motif from pseudosubstrate yeast protein Acm1]", "values": [
      {"measurement": "binding to Cdh1 (in words)", "result": "bound with very low affinity to Cdh1"}
    ]}
  ]
}
